Experimental data: patent publication US20130157858A1, “METHODS AND SYSTEMS USEFUL FOR C[…] WATERMILFOIL” (priority 2011, published 2013)

How the values were obtained:
[1] = test system: hybrid milfoil population; conditions: hybrid milfoil population (B), 6 weeks following applications of various rates, FIG. 2; cited from earlier work
[2] = test system: auxin herbicide sensitive Eurasian milfoil biotype; conditions: Eurasian milfoil biotype (A), 6 weeks following applications of various rates, FIG. 2; cited from earlier work
[3] = test system: tolerant hybrid milfoil lineage from an Upper Midwest US lake; assay: 14-day laboratory apical tissue assay, fluridone herbicide response (beta-carotene); type: in vivo, hybrid (Northern×Eurasian) watermilfoil; conditions: 14-day apical tissue assay, various rates of fluridone, compared with the susceptible reference Eurasian milfoil lineage (EWM), n=4, FIG. 3
Text: FIG. 3 depicts fluridone herbicide response of a tolerant hybrid milfoil lineage from an Upper Midwest US lake compared to response of a susceptible reference Eurasian milfoil lineage (EWM) in a 14-day laboratory apical tissue assay. […] Error bars are +1 standard deviation (n=4).

| Molecule | response in aboveground biomass (sensitivity/tolerance) [1] | response in aboveground biomass (sensitivity/tolerance) [2] | beta-carotene reduction [3] |
| --- | --- | --- | --- |
| O=C(O)COc1ccc(Cl)cc1Cl [2,4-d, 2,4-dichlorophenoxyacetic acid] | displaying auxin tolerance | sensitive | – |
| O=C(O)COc1nc(Cl)c(Cl)cc1Cl [triclopyr] | displaying auxin tolerance | sensitive | – |
| fluridone | – | – | less beta-carotene reduction for the tolerant hybrid lineage versus the reference Eurasian lineage |
